{"source": "ChEMBL document CHEMBL4270529", "about": "“Rational design of mitochondria-targeted pyruvate dehydrogenase kinase 1 inhibitors with improved selectivity and antiproliferative activity” (Eur J Med Chem, 2018)", "key": {"[1]": {"target": "pyruvate dehydrogenase kinase 1 (Homo sapiens) (UniProt Q15118)", "sequence (Q15118 whole entry, looked up)": "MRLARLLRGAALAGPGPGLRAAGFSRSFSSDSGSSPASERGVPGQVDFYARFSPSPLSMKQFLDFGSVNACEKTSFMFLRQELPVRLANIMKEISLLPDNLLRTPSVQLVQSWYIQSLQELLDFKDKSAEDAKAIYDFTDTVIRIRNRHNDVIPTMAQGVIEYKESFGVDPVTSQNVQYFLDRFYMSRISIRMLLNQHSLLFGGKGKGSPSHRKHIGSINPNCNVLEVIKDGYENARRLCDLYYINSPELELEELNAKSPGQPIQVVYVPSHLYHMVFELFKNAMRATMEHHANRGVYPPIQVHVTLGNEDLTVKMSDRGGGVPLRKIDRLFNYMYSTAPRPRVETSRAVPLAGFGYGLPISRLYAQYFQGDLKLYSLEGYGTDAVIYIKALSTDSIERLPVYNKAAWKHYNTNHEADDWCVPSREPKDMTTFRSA", "test": "Inhibition of PDK1 in human NCI-H1650 cells assessed as switch of pyruvate metabolism from lactate production to OXPHOS in mitochondria by measuring reduction in lactate formation at 2 to 5 uM after 4 hrs"}, "[2]": {"system": "NCI-H1650", "test": "Induction of apoptosis in human NCI-H1650 cells assessed as late apoptotic cells at 1 uM after 24 hrs by Annexin V-FITC/PI staining based flow cytometry (reference value: 3.5%)", "format": "functional"}, "[3]": {"target": "pyruvate dehydrogenase kinase 1 (Homo sapiens) (UniProt Q15118)", "test": "Inhibition of PDK1 in human NCI-H1650 cells assessed as switch of pyruvate metabolism from lactate production to OXPHOS in mitochondria by measuring increase in oxygen consumption rates at 1 to 5 uM incubated for 4 hrs measured for 16 mins"}, "[4]": {"system": "NCI-H1650", "test": "Induction of apoptosis in human NCI-H1650 cells assessed as early apoptotic cells at 2 uM after 12 hrs by Annexin V-FITC/PI staining based flow cytometry (reference value: 1.4%)", "format": "functional"}, "[5]": {"system": "NCI-H1650", "test": "Induction of apoptosis in human NCI-H1650 cells assessed as early apoptotic cells at 0.5 uM after 12 hrs by Annexin V-FITC/PI staining based flow cytometry (reference value: 1.4%)", "format": "functional"}, "[6]": {"system": "NCI-H1650", "test": "Induction of mitochondrial membrane depolarization in human NCI-H1650 cells assessed as collapse of mitochondrial membrane potential at 2 uM after 4 hrs by JC1 staining-based flow cytometric method (reference value: 38.3%)", "format": "functional"}, "[7]": {"system": "NCI-H1650", "test": "Induction of apoptosis in human NCI-H1650 cells assessed as necrotic cells at 1 uM after 12 hrs by Annexin V-FITC/PI staining based flow cytometry (reference value: 1.6%)", "format": "functional"}, "[8]": {"system": "NCI-H1650", "test": "Induction of mitochondrial membrane depolarization in human NCI-H1650 cells assessed as intact mitochondrial membrane potential at 2 uM after 4 hrs by JC1 staining-based flow cytometric method (reference value: 61.6%)", "format": "functional"}, "[9]": {"target": "pyruvate dehydrogenase kinase 1 (Homo sapiens) (UniProt Q15118)", "test": "Inhibition of PDK1 in human NCI-H1650 cells assessed as reduction in PDC phosphorylation after 12 hrs by Western blot analysis"}, "[10]": {"system": "NCI-H1650", "test": "Induction of apoptosis in human NCI-H1650 cells assessed as late apoptotic cells at 0.5 uM after 12 hrs by Annexin V-FITC/PI staining based flow cytometry (reference value: 3.5%)", "format": "functional"}, "[11]": {"system": "NCI-H1650", "test": "Induction of apoptosis in human NCI-H1650 cells assessed as early apoptotic cells at 1 uM after 12 hrs by Annexin V-FITC/PI staining based flow cytometry (reference value: 1.4%)", "format": "functional"}, "[12]": {"system": "NCI-H1650", "test": "Induction of apoptosis in human NCI-H1650 cells assessed as early apoptotic cells at 1 uM after 24 hrs by Annexin V-FITC/PI staining based flow cytometry (reference value: 1.4%)", "format": "functional"}, "[13]": {"system": "NCI-H1650", "test": "Induction of apoptosis in human NCI-H1650 cells assessed as necrotic cells at 0.5 uM after 12 hrs by Annexin V-FITC/PI staining based flow cytometry (reference value: 1.6%)", "format": "functional"}, "[14]": {"system": "NCI-H1650", "test": "Induction of apoptosis in human NCI-H1650 cells assessed as viable cells at 2 uM after 12 hrs by Annexin V-FITC/PI staining based flow cytometry (reference value: 93.5%)", "format": "functional", "conditions": "NCI-H1650, 12 h, read-out: Activity"}, "[15]": {"system": "NCI-H1650", "test": "Induction of apoptosis in human NCI-H1650 cells assessed as necrotic cells at 2 uM after 12 hrs by Annexin V-FITC/PI staining based flow cytometry (reference value: 1.6%)", "format": "functional"}}, "note": "Calls of active or inactive are those of the source. The rule behind the calls is not given here.", "data": [{"smiles": "O=C(CCCCC[P+](c1ccccc1)(c1ccccc1)c1ccccc1)Oc1ccc(-c2ccc(C(=O)C(Cl)Cl)cc2)cc1[N+](=O)[O-].[Br-]", "values": [{"measurement": "inhibition", "setting": "[1]", "value": "Active"}, {"measurement": "Activity", "setting": "[2]", "value": 10.7, "unit": "%"}, {"measurement": "inhibition", "setting": "[3]", "value": "Active"}, {"measurement": "Activity", "setting": "[4]", "value": 3.2, "unit": "%"}, {"measurement": "Activity", "setting": "[5]", "value": 2.1, "unit": "%"}, {"measurement": "Activity", "setting": "[6]", "value": 74.2, "unit": "%"}, {"measurement": "Activity", "setting": "[7]", "value": "1.2 - 1.4%"}, {"measurement": "Activity", "setting": "[8]", "value": 25.8, "unit": "%"}, {"measurement": "inhibition", "setting": "[9]", "value": "Dose-dependent effect"}, {"measurement": "Activity", "setting": "[10]", "value": 5.1, "unit": "%"}, {"measurement": "Activity", "setting": "[11]", "value": "2.8 - 5.5%"}, {"measurement": "Activity", "setting": "[12]", "value": 12.9, "unit": "%"}, {"measurement": "Activity", "setting": "[13]", "value": 1.1, "unit": "%"}, {"measurement": "viability at 2 µM", "setting": "[14]", "value": 80.9, "unit": "%"}, {"measurement": "Activity", "setting": "[15]", "value": 1.9, "unit": "%"}]}]}
